Test results reported in US20240132449A1, “HETEROCYCLIC COMPOUNDS AND METHODS OF USE THEREOF” (1cBio, Inc., priority 2022, published 2024).
Counter-ions that a name gives are not always drawn.

Experiments:
PARP1 = PARP1 (Homo sapiens, UniProt P09874); test: PARP1 fluorescence polarization binding assay; settings: binding IC50, GST-tagged PARP1 20 nM, PARPi-FL 3 nM
Protocol: Compounds of the present disclosure were tested in a PARP1 fluorescence polarization binding assay at Pharmaron (Beijing, P.R.China). In this biochemical assay, binding of test compound to recombinant human PARP1 reduces the amount of binding of a fluorescent probe, and consequently reduces the detected level of fluorescence polarization. Test compound stock solutions were prepared in DMSO and then serially diluted into 10 concentrations by 3-fold dilution in a 384-well plate using a TECAN EVO200. 60 nL of each dilution was transferred to the plate using an Echo550 (Labcyte), and then 10 μL 40 nM GST-tagged PARP1 (BPS Bioscience, Cat #80501), diluted in assay buffer (50 mM Tris pH 8.0, 0.001% Triton X-100, 10 mM MgCl2, 150 mM NaCl), was added to the plate. After a centrifugation at 1000 rpm for 1 min, the assay plate was incubated for 30 min at RT. 10 μL 6 nM PARPi-FL (TOCRIS, Cat #6461), diluted using assay buffer, was then added to the plate. The final concentrations of PARP1 and PARPi-FL were 20 nM and 3 nM, respectively, in a total volume of 20 μL. After a centrifugation at 1000 rpm for 1 min, the assay plate was incubated for 4 h at RT. Samples in each well were read using an Envision instrument (Perkin-Elmer; Ex=480 nm Em=FITC FP-P pol 535 nm & FITC FP-S pol 535 nm). Percent inhibition was calculated from mP values using Inhibition (%)=[1−(mPc−mPL)/(mPH−mPL)]×100%, where mPc, mPL, and mPH are the mP values of test compound, Low controls, and High controls, respectively. Binding IC50 values were calculated using XLFit (equation 201: y=A+((B−A)/(1+((x/C)^D))), where A=bottom, B=top, C=IC50, and D=slope) with a floating top and bottom for curves. Binding IC50 values are shown in Table A and are presented in ranges, in which “+++”<100 nM, 100 nM≤“++”<3000 nM, and “+”≥3000 nM.

recombinant human PARP2 = recombinant human PARP2 (Homo sapiens, UniProt Q9UGN5); test: PARP2 fluorescence polarization binding assay; settings: for inhibition at 10 µM: read-out: PARP2 % inh at 10 μM; for IC50: binding IC50, GST-tagged PARP2 20 nM, PARPi-FL 3 nM
Protocol: Compounds of the present disclosure were tested in a PARP2 fluorescence polarization binding assay at Pharmaron (Beijing, P.R. China). In this biochemical assay, binding of test compound to recombinant human PARP2 reduces the amount of binding of a fluorescent probe, and consequently reduces the detected level of fluorescence polarization. Test compound stock solutions were prepared in DMSO and then serially diluted into 10 concentrations by 3-fold dilution in a 384-well plate using a TECAN EVO200. Alternatively, a single concentration was prepared. 60 nL of each dilution was transferred to the plate using an Echo550 (Labcyte), and then 10 μL 40 nM GST-tagged PARP2 (BPS Bioscience, Cat #80502), diluted in assay buffer (50 mM Tris pH 8.0, 0.001% Triton X-100, 10 mM MgCl2, 150 mM NaCl), was added to the plate. After a centrifugation at 1000 rpm for 1 min, the assay plate was incubated for 30 min at RT. 10 μL 6 nM PARPi-FL (TOCRIS, Cat #6461), diluted using assay buffer, was then added to the plate. […] After a centrifugation at 1000 rpm for 1 min, the assay plate was incubated for 4 h at RT. Samples in each well were read using an Envision instrument (Perkin-Elmer; Ex=480 nm Em=FITC FP-P pol 535 nm & FITC FP-S pol 535 nm). […] Binding IC50 values were calculated using XLFit (equation 201: […])^D))), where A=bottom, B=top, C=IC50, and D=slope) with a floating top and bottom for curves.

[1] = test system: DLD-1 BRCA2(−/−) colorectal adenocarcinoma cells; test: Cell viability assay (Cell Titer-Glo), DLD-1 BRCA2(−/−); type: cell-based; settings: Homo sapiens, DLD-1, 168 h; 7 days incubation, 200 cells/well
Protocol: (§1) Compounds of the present disclosure were tested for their effects on the viability of cancer cells. DLD-1 wild-type and DLD-1 BRCA2(−/−) colorectal adenocarcinoma cells, an isogenic pair of cell lines differing in the presence and absence, respectively, of both BRCA2 alleles, were used. The cells were harvested during the logarithmic growth period, counted, and seeded at 50 cells/well for DLD-1 wild-type and 200 cells/well for DLD-1 BRCA2(−/−) in a 384-well cell culture plate. After seeding, cells were incubated at 37° C., 5% CO2 overnight. Cells were treated with serially diluted test compounds at 10 concentrations (e.g., from 1.5 nM-30 μM) for generation of dose response curves, or at a single concentration. The plate was further incubated for another 7 days in a humidified incubator at 37° C. and 5% CO2. Cell viability was assessed by luminescence measurement after addition of Cell Titer-Glo reagent (Promega, Madison, Wis.) according to the manufacturer's instructions. Cell viability IC50 values were calculated using XLFit, equation 201: y=A+((B−A)/(1+((x/C)^D))), where A=bottom, B=top, C=IC50, and D=slope. IC50 values are shown in Table B and are presented in ranges, in which “+++”<300 nM, 300 nM≤“++”<3000 nM, and “+”≥3000 nM. Values for percent inhibition at 10 μM are also shown in Table B and are presented in ranges, in which “***”≥67%, 33%≤“**”<67%, and “*”<33%. Effects of the test compounds on the viability of other cell lines such as MDA-MB-436, MDA-MB-231, SUM149PT, HCC1395, and UWB1.289 are determined in an analogous method.

[2] = test system: DLD-1 wild-type colorectal adenocarcinoma cells; test: Cell viability assay (Cell Titer-Glo), DLD-1 wild-type; type: cell-based; settings: Homo sapiens, DLD-1, 168 h, 7 days incubation; for inhibition at 10 µM: read-out: DLD-1 wild-type % inh at 10 μM; for IC50: 50 cells/well
Protocol: as §1

Chain of PARP1 (P09874 whole entry): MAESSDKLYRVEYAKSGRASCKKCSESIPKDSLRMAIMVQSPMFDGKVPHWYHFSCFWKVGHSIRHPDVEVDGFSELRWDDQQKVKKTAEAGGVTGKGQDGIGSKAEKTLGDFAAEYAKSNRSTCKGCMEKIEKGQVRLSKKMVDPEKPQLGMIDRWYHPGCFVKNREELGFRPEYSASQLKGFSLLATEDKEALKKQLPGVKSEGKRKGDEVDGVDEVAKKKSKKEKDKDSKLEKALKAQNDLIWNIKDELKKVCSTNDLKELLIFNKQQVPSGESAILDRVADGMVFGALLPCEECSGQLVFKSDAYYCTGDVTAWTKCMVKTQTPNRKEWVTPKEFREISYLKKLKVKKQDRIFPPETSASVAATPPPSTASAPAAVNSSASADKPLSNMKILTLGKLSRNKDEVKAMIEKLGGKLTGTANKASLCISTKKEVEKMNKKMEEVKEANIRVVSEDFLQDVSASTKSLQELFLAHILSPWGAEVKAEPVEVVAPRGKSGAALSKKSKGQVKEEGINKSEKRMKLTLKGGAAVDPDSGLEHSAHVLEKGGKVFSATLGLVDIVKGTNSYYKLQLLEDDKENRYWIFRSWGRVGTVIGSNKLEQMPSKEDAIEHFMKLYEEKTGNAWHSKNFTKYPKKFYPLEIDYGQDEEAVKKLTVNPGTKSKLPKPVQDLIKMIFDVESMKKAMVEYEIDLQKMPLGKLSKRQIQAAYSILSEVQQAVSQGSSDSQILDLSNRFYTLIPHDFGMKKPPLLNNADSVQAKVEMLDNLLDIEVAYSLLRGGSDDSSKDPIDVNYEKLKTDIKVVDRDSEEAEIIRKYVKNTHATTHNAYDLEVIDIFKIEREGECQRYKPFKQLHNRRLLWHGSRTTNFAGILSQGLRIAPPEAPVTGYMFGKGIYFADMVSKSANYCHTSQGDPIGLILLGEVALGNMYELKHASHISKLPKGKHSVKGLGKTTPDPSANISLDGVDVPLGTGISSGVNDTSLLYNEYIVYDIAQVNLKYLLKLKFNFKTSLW
Chain of recombinant human PARP2 (Q9UGN5 whole entry): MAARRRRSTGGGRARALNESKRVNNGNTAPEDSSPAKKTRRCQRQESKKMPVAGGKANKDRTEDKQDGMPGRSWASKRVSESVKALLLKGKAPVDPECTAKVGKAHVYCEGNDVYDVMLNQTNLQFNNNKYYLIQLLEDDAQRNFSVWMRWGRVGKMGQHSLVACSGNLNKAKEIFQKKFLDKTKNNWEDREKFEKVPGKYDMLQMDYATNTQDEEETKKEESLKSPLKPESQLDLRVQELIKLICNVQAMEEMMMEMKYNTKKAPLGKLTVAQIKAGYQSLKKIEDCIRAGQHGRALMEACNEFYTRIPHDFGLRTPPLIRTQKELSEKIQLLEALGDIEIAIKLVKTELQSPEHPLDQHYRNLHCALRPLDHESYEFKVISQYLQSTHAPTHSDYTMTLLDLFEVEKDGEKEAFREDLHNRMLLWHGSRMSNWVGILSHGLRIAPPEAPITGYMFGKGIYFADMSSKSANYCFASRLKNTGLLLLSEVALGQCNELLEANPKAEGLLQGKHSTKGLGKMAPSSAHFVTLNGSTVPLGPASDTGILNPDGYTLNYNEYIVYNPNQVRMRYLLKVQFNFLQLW

IC50 (PARP1) [nM]	inhibition at 10 µM (recombinant human PARP2) [%]	IC50 [2] [nM]	IC50 (recombinant human PARP2) [nM]	Compound	IC50 [1] [nM]	inhibition at 10 µM [2] [%]
< 100	33 to 67	> 3000	> 3000	CNC(=O)c1ccc(N2CCN(Cc3ccc4c(=O)n(C)c(=O)[nH]c4c3)CC2)cn1 [Compound 2]	300 to 3000	< 33
< 100	33 to 67	> 3000	> 3000	CNC(=O)c1ccc(N2CCN(Cc3ccc4c(=O)n(C(C)C)c(=O)[nH]c4c3)CC2)cn1 [Compound 4, 5-(4-((3-isopropyl-2,4-dioxo-1,2,3,4-tetrahydroquinazolin-7-yl)methyl)piperazin-1-yl)-N-methylpicolinamide]	> 3000	33 to 67
< 100	33 to 67	> 3000	> 3000	CNC(=O)c1ccc(N2CCN(Cc3ccc4c(=O)n(C5CC5)c(=O)[nH]c4c3)CC2)cn1 [Compound 5, 5-(4-((3-cyclopropyl-2,4-dioxo-1,2,3,4-tetrahydroquinazolin-7-yl)methyl)piperazin-1-yl)-N-methylpicolinamide]	> 3000	< 33
< 100	33 to 67		> 3000	CCn1c(=O)[nH]c2cc(C(=O)N3CCN(c4ccc(C(=O)NC)nc4)CC3)ccc2c1=O [Compound 130, 5-(4-(3-ethyl-2,4-dioxo-1,2,3,4-tetrahydroquinazoline-7-carbonyl)piperazin-1-yl)-N-methylpicolinamide]		
< 100				CCn1c(=O)[nH]c2sc(CN3CCN(c4ccc(C(=O)NC)nc4C)CC3)cc2c1=O [Compound 186]		
< 100				CCn1c(=O)[nH]c2cc(CN3CCN(c4ccc(C(=O)NC)nc4C)CC3=O)sc2c1=O [Compound 305, 5-(4-((3-ethyl-2,4-dioxo-1,2,3,4-tetrahydrothieno[3,2-d]pyrimidin-6-yl)methyl)-3-oxopiperazin-1-yl)-N,6-dimethylpicolinamide]		
< 100				CCn1c(=O)[nH]c2cc(CN3CCN(c4ccc(-n5cccn5)nc4C)CC3)sc2c1=O [Compound 306, 3-ethyl-6-({4-[2-methyl-6-(pyrazol-1-yl)pyridin-3-yl]piperazin-1-yl}methyl)-1H-thieno[3,2-d]pyrimidine-2,4-dione]		
100 to 3000	33 to 67		> 3000	CCn1c(=O)[nH]c2cc(CN3CCN(c4ccc(C(=O)NC#N)nc4C)CC3)sc2c1=O [Compound 313, N-cyano-5-(4-((3-ethyl-2,4-dioxo-1,2,3,4-tetrahydrothieno[3,2-d]pyrimidin-6-yl)methyl)piperazin-1-yl)-6-methylpicolinamide, ammonia salt]		
100 to 3000				CCn1c(=O)[nH]c2cc(CN3CC(Oc4ccc(C(=O)NC)nc4C)C3)sc2c1=O [Compound 328]		
< 100				CCn1c(=O)[nH]c2cc(CN3CCN(c4ccc(-c5ncc[nH]5)nc4C)CC3)sc2c1=O [Compound 357, 64(4-(6-(1H-imidazol-2-yl)-2-methylpyridin-3-yl)piperazin-1-yl) methyl)-3-ethylthieno[3,2-d]pyrimidine-2,4(1H,3H)-dione formate]		
> 3000				CCn1c(=O)[nH]c2cc(CN3CCN(c4ccc(C(=O)N5CCCC5)nc4C)CC3)sc2c1=O [Compound 526, 3-ethyl-6-[(4-{2-methyl-6-[(pyrrolidin-1-yl)carbonyl]pyridin-3-yl}piperazin-1-yl)methyl]-1H-thieno[3,2-d]pyrimidine-2,4-dione]		
< 100				CCn1c(=O)[nH]c2cc(CN3CCN(c4ccc(NC(C)=O)nc4C)CC3)sc2c1=O [Compound 528, N-(5-(4-((3-ethyl-2,4-dioxo-1,2,3,4-tetrahydrothieno[3,2-d]pyrimidin-6-yl)methyl)piperazin-1-yl)-6-methylpyridin-2-yl)acetamide]		
> 3000				CCn1c(=O)[nH]c2cc(CN3CCN(c4ccc(CNC)nc4C)CC3)sc2c1=O [Compound 529, 3-ethyl-6-((4-(2-methyl-6-((methylamino)methyl)pyridin-3-yl)piperazin-1-yl)methyl)thieno[3,2-d]pyrimidine-2,4(1H,3H)-dione]		
< 100				CCn1c(=O)[nH]c2sc(CN3CCN(c4ccc(C(=O)NC)nc4F)CC3)cc2c1=O [Compound 530, 5-(4-((3-ethyl-2,4-dioxo-1,2,3,4-tetrahydrothieno[2,3-d]pyrimidin-6-yl)methyl)piperazin-1-yl)-6-fluoro-N-methylpicolinamide bis formate]		
< 100				CCn1c(=O)[nH]c2cc(CN3CCN(c4ccc(C#N)cn4)CC3)sc2c1=O [Compound 531]		

Compound	IC50 (PARP1) [nM]	inhibition at 10 µM (recombinant human PARP2) [%]	IC50 [2] [nM]	IC50 (recombinant human PARP2) [nM]	IC50 [1] [nM]	inhibition at 10 µM [2] [%]
CNC(=O)c1ccc(N2CCN(Cc3ccc4c(=O)[nH]c(=O)[nH]c4c3)CC2)cn1 [Compound 1, 5-(4-((2,4-dioxo-1,2,3,4-tetrahydroquinazolin-7-yl)methyl)piperazin-1-yl)-N-methylpicolinamide formate]	100 to 3000	33 to 67				
CCn1c(=O)[nH]c2cc(CN3CCN(c4ccc(C(=O)NC)nc4)CC3)ccc2c1=S [Compound 40, 5-(4-((3-ethyl-2-oxo-4-thioxo-1,2,3,4-tetrahydroquinazolin-7-yl)methyl)piperazin-1-yl)-N-methylpicolinamide formate]	< 100	33 to 67	> 3000	> 3000	300 to 3000	< 33
CCn1c(=O)[nH]c2sc(CN3CCN(c4ccc(C(=O)NC)nc4)CC3)cc2c1=O [Compound 60, 5-(4-((3-ethyl-2,4-dioxo-1,2,3,4-tetrahydrothieno[2,3-d]pyrimidin-6-yl)methyl)piperazin-1-yl)-N-methylpicolinamide formate]	100 to 3000	33 to 67			> 3000	< 33
CCn1c(=O)[nH]c2cc(CN3CCN(c4ccc(C(=O)NC)nc4)CC3)sc2c1=O [Compound 86, 5-(4-((3-ethyl-2,4-dioxo-1,2,3,4-tetrahydrothieno[3,2-d]pyrimidin-6-yl)methyl)piperazin-1-yl)-N-methylpicolinamide formate]	< 100	33 to 67		> 3000	< 300	< 33
